# Measurements as given in ChEMBL document CHEMBL1155862, “High affinity conformationally constrained nociceptin/orphanin FQ(1-13) amide analogues” (J Med Chem, 2008).
# Peptide text beside a SMILES is read from it.
# How the values were obtained:
# [1] = target: T1, Nociceptin receptor (Homo sapiens, UniProt P41146); assay: Displacement of [3H]N/OFQ from human NOP receptor expressed in CHO cells; format: cell-based
# [2] = target: T1, Nociceptin receptor; assay: Agonist activity at human NOP receptor expressed in CHO cells assessed as stimulation of [35S]GTPgammaS binding; format: functional, cell-based
# [3] = target: T1, Nociceptin receptor; assay: Agonist activity at human NOP receptor expressed in CHO cells assessed as stimulation of [35S]GTPgammaS binding relative to nociceptin/orphanin FQ (1-13)NH2 peptide; format: functional, cell-based
# [4] = target: T1, Nociceptin receptor; assay: Binding affinity to human NOP receptor
# [5] = target: T1, Nociceptin receptor; assay: Agonist activity at human NOP receptor by [35S]GTPgammaS binding assay; format: functional
# T1 sequence (P41146 whole entry): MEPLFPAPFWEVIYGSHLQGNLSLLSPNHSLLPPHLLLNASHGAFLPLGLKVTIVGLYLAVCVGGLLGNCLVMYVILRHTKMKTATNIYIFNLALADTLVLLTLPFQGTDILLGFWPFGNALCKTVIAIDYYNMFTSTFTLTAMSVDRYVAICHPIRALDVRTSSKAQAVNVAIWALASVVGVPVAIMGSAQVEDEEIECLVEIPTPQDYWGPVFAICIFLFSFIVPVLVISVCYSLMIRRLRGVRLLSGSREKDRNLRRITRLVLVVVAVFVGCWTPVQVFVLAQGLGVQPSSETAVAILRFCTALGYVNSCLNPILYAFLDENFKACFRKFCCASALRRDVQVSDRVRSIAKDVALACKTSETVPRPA
Compound,Ki [1] [nM],EC50 [2] [nM],Activity [3] [%],further results
C[C@H](NC(=O)[C@@H]1CCCCNC(=O)C[C@@H](NC(=O)CNC(=O)[C@@H](NC(=O)[C@H](Cc2ccccc2)NC(=O)CNC(=O)CNC(=O)[C@@H](N)Cc2ccccc2)[C@@H](C)O)C(=O)N[C@@H](CCCNC(=N)N)C(=O)N[C@@H](CCCCN)C(=O)N1)C(=O)N[C@@H](CCCNC(=N)N)C(=O)N[C@@H](CCCCN)C(N)=O,0.27,1.6,,
C[C@H](NC(=O)[C@H](CCCCN)NC(=O)[C@H](CCCCN)NC(=O)[C@H](CCCN=C(N)N)NC(=O)[C@@H](CC(=O)O)NC(=O)CNC(=O)[C@@H](NC(=O)[C@H](Cc1ccccc1)NC(=O)CNC(=O)CNC(=O)[C@@H](N)Cc1ccccc1)[C@@H](C)O)C(=O)N[C@@H](CCCN=C(N)N)C(=O)N[C@@H](CCCCN)C(N)=O,1.79,106,,
C[C@H](NC(=O)[C@@H]1CCCCNC(=O)C[C@H](NC(=O)CNC(=O)[C@@H](NC(=O)[C@H](Cc2ccccc2)NC(=O)CNC(=O)CNC(=O)[C@@H](N)Cc2ccccc2)[C@@H](C)O)C(=O)N[C@@H](CCCNC(=N)N)C(=O)N[C@@H](CCCCN)C(=O)N1)C(=O)N[C@@H](CCCNC(=N)N)C(=O)N[C@@H](CCCCN)C(N)=O,,,92,
C[C@H](NC(=O)[C@H](CCCCN)NC(=O)[C@H](CCCCN)NC(=O)[C@H](CCCNC(=N)N)NC(=O)[C@@H](CC(=O)O)NC(=O)CNC(=O)[C@@H](NC(=O)[C@H](Cc1ccccc1)NC(=O)CNC(=O)CNC(=O)[C@@H](N)Cc1ccccc1)[C@@H](C)O)C(=O)N[C@@H](CCCNC(=N)N)C(=O)N[C@@H](CCCCN)C(N)=O,,,100,
"C[C@H](NC(=O)[C@@H]1CSSC[C@H](NC(=O)[C@@H](NC(=O)[C@H](Cc2ccccc2)NC(=O)CNC(=O)CNC(=O)[C@@H](N)Cc2ccccc2)[C@@H](C)O)C(=O)N[C@@H](C)C(=O)N[C@@H](CCCNC(=N)N)C(=O)N[C@@H](CCCCN)C(=O)N1)C(=O)N[C@@H](CCCNC(=N)N)C(=O)N[C@@H](CCCCN)C(N)=O (HELM PEPTIDE1{F.G.G.F.T.C.A.R.K.C.A.R.K.[am]}$PEPTIDE1,PEPTIDE1,6:R3-10:R3$$$V2.0)",,,,Ki [4]: 0.83 nM
"C[C@H](NC(=O)[C@@H]1CCCCNC(=O)C[C@H](NC(=O)[C@@H](NC(=O)[C@H](Cc2ccccc2)NC(=O)CNC(=O)CNC(=O)[C@@H](N)Cc2ccccc2)[C@@H](C)O)C(=O)N[C@@H](C)C(=O)N[C@@H](CCCN=C(N)N)C(=O)N[C@@H](CCCCN)C(=O)N1)C(=O)N[C@@H](CCCN=C(N)N)C(=O)N[C@@H](CCCCN)C(N)=O (HELM PEPTIDE1{F.G.G.F.T.D.A.R.K.K.A.R.K.[am]}$PEPTIDE1,PEPTIDE1,6:R3-10:R3$$$V2.0)",0.34,4.12,,
"C[C@H](NC(=O)[C@@H]1CCCCNC(=O)C[C@H](NC(=O)[C@@H](NC(=O)[C@H](Cc2ccccc2)NC(=O)CNC(=O)CNC(=O)[C@@H](N)Cc2ccccc2)[C@@H](C)O)C(=O)N[C@@H](C)C(=O)N[C@@H](CCCNC(=N)N)C(=O)N[C@@H](CCCCN)C(=O)N1)C(=O)N[C@@H](CCCNC(=N)N)C(=O)N[C@@H](CCCCN)C(N)=O (HELM PEPTIDE1{F.G.G.F.T.D.A.R.K.K.A.R.K.[am]}$PEPTIDE1,PEPTIDE1,6:R3-10:R3$$$V2.0)",,,80,
"C[C@H](NC(=O)[C@@H]1CSSC[C@H](NC(=O)CNC(=O)[C@@H](NC(=O)[C@H](Cc2ccccc2)NC(=O)CNC(=O)CNC(=O)[C@@H](N)Cc2ccccc2)[C@@H](C)O)C(=O)N[C@@H](CCCN=C(N)N)C(=O)N[C@@H](CCCCN)C(=O)N1)C(=O)N[C@@H](CCCN=C(N)N)C(=O)N[C@@H](CCCCN)C(N)=O (HELM PEPTIDE1{F.G.G.F.T.G.C.R.K.C.A.R.K.[am]}$PEPTIDE1,PEPTIDE1,7:R3-10:R3$$$V2.0)",,,,Ki [4]: 0.1 nM; EC50 [5]: 0.69 nM
H-FGGFTDARKKARK-NH2,0.54,22.3,122,
